Test results as given in patent US20150322083A1, “(THIENO[2,3-b][1,5]BENZOXAZEPIN-4-YL)PIPERAZIN-1-YL COMPOUNDS AS SELECTIVE 5-HT2A INVERSE AGONISTS” (Eli Lilly and Company, priority 2014, published 2015).

How the values were obtained:
Dopamine D3 = Dopamine D3 (Homo sapiens, UniProt P35462); experiment: Dopamine D3 binding
Experimental: (§1) Curves are evaluated using a 4-parameter logistic nonlinear equation to obtain the concentration of competitor causing 50% inhibition of radioligand binding (IC50). Equilibrium dissociation constants (Ki) are calculated according to the equation Ki=IC50/(1+L/Kd), where L equals the concentration of radioligand used in the experiment and Kd equals the equilibrium dissociation constant of the radioligand for the receptor, determined from standard saturation analysis or homologous competition experiments. Reported values for Ki, where n values are indicated, are shown as geometric mean±the standard error of the mean (SEM), with the number of replicate determinations indicated by n. Geometric means are calculated by the equation GeoMean=10̂(Average(log Ki 1+log Ki 2+ . . . log Ki n)/[…]).
(§2) Further, the compounds of the invention may be tested in binding assays and functional activity assays by well known methods for other physiologically important receptors such as, but not limited to, the hERG channel, other serotonin receptors (specifically 5-HT1B receptors, lack of agonist activity at 5-HT2B receptors, 5-HT2C, 5-HT5, 5-HT6, and 5-HT7 receptors), dopaminergic receptors (specifically D1, D2, and D3), H1 receptors, GABAA receptors, adrenergic receptors and monoamine transporters.

Adrenergic alpha1B = Adrenergic alpha1B (Homo sapiens, UniProt P35368); experiment: Adrenergic alpha1B binding
Sequence of Adrenergic alpha1B (P35368 whole entry): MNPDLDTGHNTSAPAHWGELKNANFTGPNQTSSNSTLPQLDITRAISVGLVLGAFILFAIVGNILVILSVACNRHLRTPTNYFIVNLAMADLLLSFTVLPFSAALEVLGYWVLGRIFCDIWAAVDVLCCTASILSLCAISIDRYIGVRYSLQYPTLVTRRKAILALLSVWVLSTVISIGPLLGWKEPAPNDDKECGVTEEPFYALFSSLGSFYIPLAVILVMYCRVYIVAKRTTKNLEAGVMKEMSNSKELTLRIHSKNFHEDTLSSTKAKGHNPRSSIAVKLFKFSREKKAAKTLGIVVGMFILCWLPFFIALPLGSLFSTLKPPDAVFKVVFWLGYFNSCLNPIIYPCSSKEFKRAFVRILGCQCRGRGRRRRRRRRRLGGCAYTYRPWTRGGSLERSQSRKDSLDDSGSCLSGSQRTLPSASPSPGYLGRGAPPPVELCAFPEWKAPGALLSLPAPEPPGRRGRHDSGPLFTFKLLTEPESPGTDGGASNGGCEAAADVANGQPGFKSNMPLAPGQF
Experimental: as §1, §2

[1] = biological target: recombinant human 5-HT2A receptor (Homo sapiens, UniProt P28223); experiment: 5-HT2A inverse agonism, [35S]GTPγS binding to AV12 membranes (human receptor); assay type: biochemical; parameters: expressed in transfected cells; host or cells: AV12 cells, membranes
Sequence of recombinant human 5-HT2A receptor (P28223 whole entry): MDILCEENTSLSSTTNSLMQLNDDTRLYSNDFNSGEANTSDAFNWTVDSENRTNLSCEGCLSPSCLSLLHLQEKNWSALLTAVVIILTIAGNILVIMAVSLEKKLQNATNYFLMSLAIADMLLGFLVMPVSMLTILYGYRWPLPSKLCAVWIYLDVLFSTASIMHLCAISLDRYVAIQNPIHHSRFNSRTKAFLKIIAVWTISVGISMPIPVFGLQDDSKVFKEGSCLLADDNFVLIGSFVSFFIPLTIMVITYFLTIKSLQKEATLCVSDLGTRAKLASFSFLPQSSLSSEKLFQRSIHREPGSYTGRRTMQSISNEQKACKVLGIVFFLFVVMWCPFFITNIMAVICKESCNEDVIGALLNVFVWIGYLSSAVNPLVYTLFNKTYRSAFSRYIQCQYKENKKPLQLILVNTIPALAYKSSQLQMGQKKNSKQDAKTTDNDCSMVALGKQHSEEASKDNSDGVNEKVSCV
Experimental: The inverse agonist activity of compounds of the present invention may be determined by literature recognized assay methods measuring [^35S]GTPγS binding to membranes transfected with 5-HT2A receptors in an in vitro activity assay essentially as described below.
Membranes are prepared from frozen pellets of whole AV12 cells expressing the human or rat 5-HT2A receptor. Cells are thawed on ice and homogenized in homogenization buffer (50 mM Tris-HCl, 0.5 mM EDTA, 1 tablet/100 mL of complete EDTA free protease inhibitor tablets (Roche Cat. No. 05 056 489 001), pH=7.4) with 20 strokes of a teflon-glass homogenizer attached to a motorized overhead stirrer. Centrifuge membranes at 1000 rpm (aprox. 150×g) for 15 min. at 4° C. […] The final supernatant is discarded and the pellet is resuspended in homogenization buffer and its protein content is determined by the method of Bradford using BSA as the standard. […]
Test compound is prepared from a 10 mM DMSO stock solution by serial dilution to provide a 10 point concentration response curve, with a final 1% DMSO concentration when added to the assay mixture. […] This mixture is incubated for 3 hr. with constant shaking at room temperature, centrifuged at 300 rpm for 1 min. with no brake and incubated for 3 more hr. before reading in a microplate scintillation counter.

Adrenergic alpha1A = Adrenergic alpha1A (Homo sapiens, UniProt P35348); experiment: Adrenergic alpha1A binding
Sequence of Adrenergic alpha1A (P35348 whole entry): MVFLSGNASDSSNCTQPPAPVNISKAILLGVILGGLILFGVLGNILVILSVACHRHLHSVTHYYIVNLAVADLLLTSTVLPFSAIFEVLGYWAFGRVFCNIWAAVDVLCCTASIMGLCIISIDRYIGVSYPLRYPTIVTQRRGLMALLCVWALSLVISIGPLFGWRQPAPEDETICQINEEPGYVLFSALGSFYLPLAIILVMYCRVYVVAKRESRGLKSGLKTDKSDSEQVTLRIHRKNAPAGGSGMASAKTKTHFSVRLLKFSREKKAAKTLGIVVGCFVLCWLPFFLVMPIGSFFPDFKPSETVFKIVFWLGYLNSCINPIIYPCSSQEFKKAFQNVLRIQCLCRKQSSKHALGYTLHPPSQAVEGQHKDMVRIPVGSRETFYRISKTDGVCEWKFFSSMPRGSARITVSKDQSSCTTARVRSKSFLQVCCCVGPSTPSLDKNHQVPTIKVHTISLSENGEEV
Experimental: as §1, §2

5-HT2B = 5-HT2B (Homo sapiens, UniProt P41595); experiment: 5-HT2B binding (selectivity data)
Sequence of 5-HT2B (P41595 whole entry, species assumed): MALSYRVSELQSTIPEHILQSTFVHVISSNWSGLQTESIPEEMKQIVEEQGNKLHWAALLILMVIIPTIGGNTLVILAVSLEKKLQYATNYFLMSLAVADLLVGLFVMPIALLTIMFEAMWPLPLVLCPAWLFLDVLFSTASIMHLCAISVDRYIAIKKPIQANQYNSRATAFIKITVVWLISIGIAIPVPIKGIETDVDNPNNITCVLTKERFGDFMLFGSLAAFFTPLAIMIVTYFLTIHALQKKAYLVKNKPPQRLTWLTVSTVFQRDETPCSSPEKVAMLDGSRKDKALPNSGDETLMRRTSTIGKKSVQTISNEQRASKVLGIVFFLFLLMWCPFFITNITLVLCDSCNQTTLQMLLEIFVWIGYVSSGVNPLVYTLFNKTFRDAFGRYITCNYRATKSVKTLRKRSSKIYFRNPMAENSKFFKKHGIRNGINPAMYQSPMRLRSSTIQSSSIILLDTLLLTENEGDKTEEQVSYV
Experimental: as §1, §2

H1 receptors = H1 receptors (Homo sapiens, UniProt P35367); experiment: H1 receptor binding
Sequence of H1 receptors (P35367 whole entry): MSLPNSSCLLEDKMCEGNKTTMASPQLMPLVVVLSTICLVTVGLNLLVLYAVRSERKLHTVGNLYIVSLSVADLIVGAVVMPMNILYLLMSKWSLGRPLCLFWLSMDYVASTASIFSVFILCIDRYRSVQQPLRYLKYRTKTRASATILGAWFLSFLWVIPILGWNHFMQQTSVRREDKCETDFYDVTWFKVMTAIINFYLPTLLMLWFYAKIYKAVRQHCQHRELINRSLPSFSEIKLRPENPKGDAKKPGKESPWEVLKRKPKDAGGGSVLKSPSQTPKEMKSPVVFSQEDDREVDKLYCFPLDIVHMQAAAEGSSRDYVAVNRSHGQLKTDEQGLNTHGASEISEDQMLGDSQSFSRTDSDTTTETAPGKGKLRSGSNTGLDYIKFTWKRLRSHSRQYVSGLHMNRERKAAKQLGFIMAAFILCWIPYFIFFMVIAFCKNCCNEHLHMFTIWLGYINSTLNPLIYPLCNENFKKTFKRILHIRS
Experimental: as §1, §2

Dopamine D1 = Dopamine D1 (Homo sapiens, UniProt P21728); experiment: Dopamine D1 binding
Sequence of Dopamine D1 (P21728 whole entry): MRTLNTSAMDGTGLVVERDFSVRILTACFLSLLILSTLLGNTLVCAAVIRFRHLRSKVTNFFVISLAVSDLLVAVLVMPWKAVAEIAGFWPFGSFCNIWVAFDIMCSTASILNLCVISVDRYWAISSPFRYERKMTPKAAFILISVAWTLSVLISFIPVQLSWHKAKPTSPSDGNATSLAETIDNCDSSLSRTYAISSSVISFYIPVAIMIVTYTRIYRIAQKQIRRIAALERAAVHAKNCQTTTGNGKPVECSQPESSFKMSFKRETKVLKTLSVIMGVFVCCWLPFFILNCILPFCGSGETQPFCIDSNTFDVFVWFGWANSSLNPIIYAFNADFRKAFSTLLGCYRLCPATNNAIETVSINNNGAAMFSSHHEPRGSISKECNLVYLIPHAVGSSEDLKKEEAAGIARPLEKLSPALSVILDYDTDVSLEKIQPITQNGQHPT
Experimental: as §1, §2

Sequence of Dopamine D3 (P35462 whole entry): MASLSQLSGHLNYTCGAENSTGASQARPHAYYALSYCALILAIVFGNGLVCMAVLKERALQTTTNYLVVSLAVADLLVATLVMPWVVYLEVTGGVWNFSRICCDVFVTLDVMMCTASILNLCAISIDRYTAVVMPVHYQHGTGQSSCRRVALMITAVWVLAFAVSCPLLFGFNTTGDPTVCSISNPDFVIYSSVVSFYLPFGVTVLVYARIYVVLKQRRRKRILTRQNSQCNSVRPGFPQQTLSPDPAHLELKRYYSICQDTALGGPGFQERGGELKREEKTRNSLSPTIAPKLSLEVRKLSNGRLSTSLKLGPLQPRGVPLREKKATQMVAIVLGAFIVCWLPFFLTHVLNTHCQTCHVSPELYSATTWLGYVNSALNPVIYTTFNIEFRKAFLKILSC

Q: Which Ki (Dopamine D3) does the source give for `Cc1ccc2c(c1)Oc1sc(SC(C)C)cc1C(N1CCN(CC(C)(C)C(=O)O)CC1)=N2` [Example 1, 3-[4-(2-isopropylsulfanyl-8-methyl-thieno[2,3-b][1,5]benzoxazepin-4-yl)piperazin-1-yl]-2,2-dimethyl-propanoic acid] here?
A: Its Ki is > 5470 nM.

Q: What about the Ki (Adrenergic alpha1B) of the same compound?
A: The Ki was > 15800 nM.

Q: What about the “5-HT2A inverse agonism (in words)” value [1] of the same compound?
A: The value was “inverse agonist of the 5-HT2A receptor”.

Q: What about the EC50 ([1]; recombinant human receptor, n=2, read-out: EC50, inhibition of intrinsic activity of the 5-HT2A receptor) of the same compound?
A: Its EC50 is 85 nM.

Q: And the Ki (Adrenergic alpha1A)?
A: The Ki was 4450 nM.

Q: And the Ki (5-HT2B)?
A: Its Ki is 763 nM.

Q: What about the Ki (H1 receptors) of the same compound?
A: The Ki was 599 nM.

Q: And the Ki (Dopamine D1)?
A: The Ki was 2640 nM.
